ChEMBL document CHEMBL4190389, “Synthesis and activity of di- or trisubstituted N-(phenoxyalkyl)- or N-{2-[2-(phenoxy)ethoxy]ethyl}piperazine derivatives on the central nervous system” (Bioorg Med Chem Lett, 2018)

Key:
[1] = target: 5-hydroxytryptamine receptor 7 (Homo sapiens, UniProt P34969); experiment: Displacement of [3H]-LSD from recombinant human 5-HT7 receptor after 60 mins by liquid scintillation counting method
[2] = target: T1, 5-hydroxytryptamine receptor 1A (Rattus norvegicus, UniProt P19327); experiment: Displacement of [3H]8-OH-DPAT from Wistar rat 5-HT1A receptor after 20 mins by liquid scintillation counting method
T1 sequence (P19327 whole entry): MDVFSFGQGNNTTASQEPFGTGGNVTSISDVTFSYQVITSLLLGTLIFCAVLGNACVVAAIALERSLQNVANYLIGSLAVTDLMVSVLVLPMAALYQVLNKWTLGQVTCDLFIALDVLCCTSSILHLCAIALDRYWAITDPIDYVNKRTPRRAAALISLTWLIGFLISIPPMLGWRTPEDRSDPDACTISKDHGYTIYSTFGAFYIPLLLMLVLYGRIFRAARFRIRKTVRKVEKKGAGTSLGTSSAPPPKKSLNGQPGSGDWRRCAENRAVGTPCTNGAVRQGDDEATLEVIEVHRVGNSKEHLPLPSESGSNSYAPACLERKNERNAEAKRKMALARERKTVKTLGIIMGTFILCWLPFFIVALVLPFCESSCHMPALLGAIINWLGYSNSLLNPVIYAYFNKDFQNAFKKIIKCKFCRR

[3] = target: T2, Adrenergic receptor alpha-2 (Rattus norvegicus, UniProt P22086+P19328+P22909); experiment: Displacement of [3H]clonidine from rat cerebral cortex adrenergic receptor alpha2 by liquid scintillation counting method
T2 sequence (P22086 whole entry): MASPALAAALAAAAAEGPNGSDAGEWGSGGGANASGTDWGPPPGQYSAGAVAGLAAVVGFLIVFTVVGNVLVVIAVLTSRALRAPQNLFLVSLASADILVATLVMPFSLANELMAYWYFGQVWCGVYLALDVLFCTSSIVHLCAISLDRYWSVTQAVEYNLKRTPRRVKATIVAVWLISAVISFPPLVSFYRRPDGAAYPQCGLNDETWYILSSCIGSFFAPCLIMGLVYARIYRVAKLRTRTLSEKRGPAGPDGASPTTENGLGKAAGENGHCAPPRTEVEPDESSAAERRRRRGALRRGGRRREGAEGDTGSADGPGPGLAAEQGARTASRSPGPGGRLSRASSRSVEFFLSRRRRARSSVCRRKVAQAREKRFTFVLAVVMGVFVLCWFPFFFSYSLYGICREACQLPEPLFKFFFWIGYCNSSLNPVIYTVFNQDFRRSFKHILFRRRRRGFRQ
T2 sequence (P19328 whole entry): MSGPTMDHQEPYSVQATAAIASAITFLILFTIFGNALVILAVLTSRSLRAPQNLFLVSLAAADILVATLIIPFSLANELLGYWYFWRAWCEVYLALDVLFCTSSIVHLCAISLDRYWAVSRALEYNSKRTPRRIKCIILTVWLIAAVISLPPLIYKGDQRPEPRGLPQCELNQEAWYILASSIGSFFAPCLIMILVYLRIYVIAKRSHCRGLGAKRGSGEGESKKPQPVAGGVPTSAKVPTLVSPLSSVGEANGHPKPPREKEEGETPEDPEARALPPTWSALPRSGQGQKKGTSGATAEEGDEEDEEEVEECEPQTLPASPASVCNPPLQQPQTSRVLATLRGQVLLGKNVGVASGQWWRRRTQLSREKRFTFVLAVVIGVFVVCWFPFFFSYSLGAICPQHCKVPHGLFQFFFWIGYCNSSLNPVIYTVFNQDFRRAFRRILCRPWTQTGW
T2 sequence (P22909 whole entry): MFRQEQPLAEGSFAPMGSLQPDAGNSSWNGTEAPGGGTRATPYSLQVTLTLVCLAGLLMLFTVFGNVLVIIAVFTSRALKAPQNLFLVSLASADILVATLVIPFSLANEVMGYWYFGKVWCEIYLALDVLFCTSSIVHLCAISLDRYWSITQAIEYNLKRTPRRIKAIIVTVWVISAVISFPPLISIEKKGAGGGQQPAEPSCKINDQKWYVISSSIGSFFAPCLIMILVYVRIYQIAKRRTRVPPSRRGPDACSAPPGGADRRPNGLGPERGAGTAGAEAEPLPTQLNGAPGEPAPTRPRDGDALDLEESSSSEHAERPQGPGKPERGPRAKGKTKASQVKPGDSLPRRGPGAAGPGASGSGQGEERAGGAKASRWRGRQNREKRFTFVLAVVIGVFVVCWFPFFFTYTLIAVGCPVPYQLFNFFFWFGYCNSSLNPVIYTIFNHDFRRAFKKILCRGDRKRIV

[4] = target: T3, 5-hydroxytryptamine receptor 2A (Homo sapiens, UniProt P28223); experiment: Displacement of [3H]-ketanserin from recombinant human 5-HT2A receptor after 60 mins by liquid scintillation counting method
T3 sequence (P28223 whole entry): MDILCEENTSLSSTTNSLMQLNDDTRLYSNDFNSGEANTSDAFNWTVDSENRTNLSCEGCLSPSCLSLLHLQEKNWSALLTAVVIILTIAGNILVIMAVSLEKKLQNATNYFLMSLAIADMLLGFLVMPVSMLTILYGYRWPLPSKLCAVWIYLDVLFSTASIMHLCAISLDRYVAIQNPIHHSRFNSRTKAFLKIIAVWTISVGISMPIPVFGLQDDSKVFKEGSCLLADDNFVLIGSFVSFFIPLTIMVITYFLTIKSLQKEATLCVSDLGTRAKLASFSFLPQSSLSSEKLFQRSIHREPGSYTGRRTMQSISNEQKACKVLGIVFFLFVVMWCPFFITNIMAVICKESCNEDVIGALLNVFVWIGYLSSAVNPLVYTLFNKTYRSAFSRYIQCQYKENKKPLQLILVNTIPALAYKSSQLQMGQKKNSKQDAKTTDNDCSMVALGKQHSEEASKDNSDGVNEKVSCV

[5] = target: T4, Adrenergic receptor alpha-1 (Rattus norvegicus, UniProt P15823+P23944+P43140); experiment: Displacement of [3H]prazosin from rat cerebral cortex adrenergic receptor alpha1 by liquid scintillation counting method
T4 sequence (P15823 whole entry): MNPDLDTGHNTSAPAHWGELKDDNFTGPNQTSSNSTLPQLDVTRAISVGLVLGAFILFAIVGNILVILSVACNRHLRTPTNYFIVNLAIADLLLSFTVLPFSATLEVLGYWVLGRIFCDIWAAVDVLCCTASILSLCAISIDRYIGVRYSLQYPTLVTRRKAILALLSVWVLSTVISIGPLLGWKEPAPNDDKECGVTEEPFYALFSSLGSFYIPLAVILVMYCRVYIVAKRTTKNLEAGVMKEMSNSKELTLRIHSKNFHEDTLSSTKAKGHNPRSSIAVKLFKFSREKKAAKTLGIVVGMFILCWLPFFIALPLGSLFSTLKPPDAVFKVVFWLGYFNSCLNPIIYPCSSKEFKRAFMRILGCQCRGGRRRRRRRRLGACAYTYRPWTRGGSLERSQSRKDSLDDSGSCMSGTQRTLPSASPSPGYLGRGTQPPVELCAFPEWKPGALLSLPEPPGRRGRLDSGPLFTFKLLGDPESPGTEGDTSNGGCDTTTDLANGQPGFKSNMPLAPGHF
T4 sequence (P23944 whole entry): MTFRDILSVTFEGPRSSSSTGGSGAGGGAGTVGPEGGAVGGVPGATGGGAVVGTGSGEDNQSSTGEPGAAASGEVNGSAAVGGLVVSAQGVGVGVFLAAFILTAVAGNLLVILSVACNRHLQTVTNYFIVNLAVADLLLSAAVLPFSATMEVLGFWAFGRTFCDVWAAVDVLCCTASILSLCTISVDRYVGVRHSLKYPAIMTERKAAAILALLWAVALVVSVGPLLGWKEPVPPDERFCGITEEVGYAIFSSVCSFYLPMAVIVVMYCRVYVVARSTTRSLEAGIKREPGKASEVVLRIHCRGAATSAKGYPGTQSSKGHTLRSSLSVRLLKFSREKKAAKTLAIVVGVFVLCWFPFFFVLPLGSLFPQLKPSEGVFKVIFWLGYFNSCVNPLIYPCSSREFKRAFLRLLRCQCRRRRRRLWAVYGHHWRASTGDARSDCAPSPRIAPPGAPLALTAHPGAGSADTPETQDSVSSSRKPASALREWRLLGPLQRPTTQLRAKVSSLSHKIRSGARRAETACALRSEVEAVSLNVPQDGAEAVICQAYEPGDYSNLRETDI
T4 sequence (P43140 whole entry): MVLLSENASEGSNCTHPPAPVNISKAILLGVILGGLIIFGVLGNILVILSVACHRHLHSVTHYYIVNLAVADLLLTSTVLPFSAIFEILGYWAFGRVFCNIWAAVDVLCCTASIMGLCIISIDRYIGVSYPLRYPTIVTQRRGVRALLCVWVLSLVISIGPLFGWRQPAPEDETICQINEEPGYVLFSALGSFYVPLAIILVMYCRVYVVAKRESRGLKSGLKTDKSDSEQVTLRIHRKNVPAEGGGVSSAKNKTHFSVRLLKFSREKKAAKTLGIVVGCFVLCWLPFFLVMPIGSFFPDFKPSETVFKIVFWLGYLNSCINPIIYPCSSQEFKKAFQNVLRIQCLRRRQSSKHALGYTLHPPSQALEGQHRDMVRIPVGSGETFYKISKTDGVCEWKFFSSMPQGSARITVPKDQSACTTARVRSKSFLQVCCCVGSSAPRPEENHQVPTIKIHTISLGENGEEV

D(2) dopamine receptor = D(2) dopamine receptor (Homo sapiens, UniProt P14416); experiment: Binding affinity to D2 receptor (unknown origin)
Chain of D(2) dopamine receptor (P14416 whole entry): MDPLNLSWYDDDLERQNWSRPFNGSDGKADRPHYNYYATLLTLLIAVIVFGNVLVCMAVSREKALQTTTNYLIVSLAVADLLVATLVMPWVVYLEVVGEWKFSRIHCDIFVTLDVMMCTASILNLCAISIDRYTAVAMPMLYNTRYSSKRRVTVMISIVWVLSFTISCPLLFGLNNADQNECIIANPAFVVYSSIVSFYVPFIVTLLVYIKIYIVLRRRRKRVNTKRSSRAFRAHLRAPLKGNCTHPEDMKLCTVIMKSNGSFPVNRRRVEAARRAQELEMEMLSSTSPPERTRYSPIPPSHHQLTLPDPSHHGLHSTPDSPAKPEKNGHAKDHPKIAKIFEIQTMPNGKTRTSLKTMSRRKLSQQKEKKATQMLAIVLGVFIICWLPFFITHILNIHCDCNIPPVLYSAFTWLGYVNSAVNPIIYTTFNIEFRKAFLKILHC

[6] = target: T3, 5-hydroxytryptamine receptor 2A; experiment: Binding affinity to 5-HT2A receptor (unknown origin)

Chain of 5-hydroxytryptamine receptor 7 (P34969 whole entry): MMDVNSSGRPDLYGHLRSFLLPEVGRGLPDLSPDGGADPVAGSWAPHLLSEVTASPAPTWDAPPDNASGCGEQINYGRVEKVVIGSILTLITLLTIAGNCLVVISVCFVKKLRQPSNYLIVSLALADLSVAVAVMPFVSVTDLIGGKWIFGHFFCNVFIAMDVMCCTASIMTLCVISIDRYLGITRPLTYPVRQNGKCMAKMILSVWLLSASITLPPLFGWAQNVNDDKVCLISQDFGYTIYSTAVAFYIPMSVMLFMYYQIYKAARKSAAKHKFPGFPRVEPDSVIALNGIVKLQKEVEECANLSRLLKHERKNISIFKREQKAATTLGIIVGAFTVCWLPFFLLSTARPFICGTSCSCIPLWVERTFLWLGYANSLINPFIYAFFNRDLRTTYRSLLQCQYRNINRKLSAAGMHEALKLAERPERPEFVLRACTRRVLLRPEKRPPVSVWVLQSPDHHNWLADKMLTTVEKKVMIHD

| Structure (SMILES) | Ki [1] [µM] | Ki [2] [µM] | Ki [3] [µM] | Ki [4] [µM] | Ki [5] [µM] | Ki (D(2) dopamine receptor) [µM] | Ki [6] [µM] |
| --- | --- | --- | --- | --- | --- | --- | --- |
| COc1ccccc1N1CCN(CCCOc2c(C)cccc2C)CC1.Cl | 0.026 | 0.0007 | 0.341 | 0.192 | – | – | – |
| OCCOCCN1CCN(C(c2ccccc2)c2ccc(Cl)cc2)CC1 (configuration not stated) [HYDROXYZINE] | – | – | – | – | 0.3 | 0.378 | 0.05 |
